The source made the active and inactive calls. No cut-off for these calls is given here.
How the values were obtained:
Mu-type opioid receptor = Mu-type opioid receptor (Cavia porcellus, UniProt P97266); assay: Agonist activity at mu opioid receptor in myenteric plexus muscle from guinea pig; type: functional
[1] = biological target: Kappa-type opioid receptor (Cavia porcellus, UniProt P41144); assay: Agonist activity at kappa opioid receptor in myenteric plexus muscle from guinea pig; type: functional
[2] = biological target: Delta-type opioid receptor (Mus musculus, UniProt P32300)
Description: Agonist activity at delta opioid receptor in mouse vas deferens

Mus musculus [3] = assay: Effect on locomotor activity in mouse hyper locomotion model at 400 ug/kg, iv; type: functional, organism-based
[4] = Distribution coefficient of the compound, log D at pH 7.4; type: physicochemical; settings: octanol/water
Mus musculus [5] = assay: Effect on locomotor activity in mouse hyper locomotion model at 1000 ug/kg, iv; type: functional, organism-based
[6] = biological target: Delta-type opioid receptor (Homo sapiens, UniProt P41143); assay: Binding affinity at human delta opioid receptor expressed in CHO cells; type: cell-based, Cricetulus griseus
[7] = Plasma clearance in dog; type: ADME, organism-based, Canis lupus familiaris
[8] = Volume of distribution in dog; type: ADME, organism-based, Canis lupus familiaris; settings: in vivo, read-out: Vdss
[9] = Oral bioavailability in dog; type: ADME, organism-based, Canis lupus familiaris; settings: in vivo
Mus musculus [10] = assay: Effect on locomotor activity in mouse hyper locomotion model at 100 ug/kg, iv; type: functional, organism-based

Kappa-type opioid receptor, sequence (P41144 whole entry): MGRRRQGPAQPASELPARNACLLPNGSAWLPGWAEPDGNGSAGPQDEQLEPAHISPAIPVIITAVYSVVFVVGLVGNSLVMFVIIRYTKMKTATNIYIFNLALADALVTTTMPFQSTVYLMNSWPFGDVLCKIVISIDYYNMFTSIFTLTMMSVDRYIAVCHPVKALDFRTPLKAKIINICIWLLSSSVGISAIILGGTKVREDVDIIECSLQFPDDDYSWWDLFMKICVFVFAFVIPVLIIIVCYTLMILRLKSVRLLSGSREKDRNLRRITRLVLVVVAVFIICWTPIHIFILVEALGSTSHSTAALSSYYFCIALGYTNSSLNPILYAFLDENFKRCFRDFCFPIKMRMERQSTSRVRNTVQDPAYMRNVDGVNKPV
Mu-type opioid receptor, sequence (P97266 whole entry): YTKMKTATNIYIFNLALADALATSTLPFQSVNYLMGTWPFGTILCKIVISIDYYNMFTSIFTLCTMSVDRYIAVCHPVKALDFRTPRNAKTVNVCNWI
Delta-type opioid receptor (Mus musculus, UniProt P32300), sequence (P32300 whole entry): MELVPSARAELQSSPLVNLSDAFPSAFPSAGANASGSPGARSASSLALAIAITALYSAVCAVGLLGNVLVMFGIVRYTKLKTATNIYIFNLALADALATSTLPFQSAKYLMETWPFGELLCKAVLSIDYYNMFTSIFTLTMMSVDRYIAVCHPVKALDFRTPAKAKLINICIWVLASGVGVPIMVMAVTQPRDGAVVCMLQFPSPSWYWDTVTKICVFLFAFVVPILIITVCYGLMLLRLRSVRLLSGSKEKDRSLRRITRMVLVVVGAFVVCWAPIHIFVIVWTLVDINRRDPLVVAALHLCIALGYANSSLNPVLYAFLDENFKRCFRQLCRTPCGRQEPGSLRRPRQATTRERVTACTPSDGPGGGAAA
Delta-type opioid receptor (Homo sapiens, UniProt P41143), sequence (P41143 whole entry): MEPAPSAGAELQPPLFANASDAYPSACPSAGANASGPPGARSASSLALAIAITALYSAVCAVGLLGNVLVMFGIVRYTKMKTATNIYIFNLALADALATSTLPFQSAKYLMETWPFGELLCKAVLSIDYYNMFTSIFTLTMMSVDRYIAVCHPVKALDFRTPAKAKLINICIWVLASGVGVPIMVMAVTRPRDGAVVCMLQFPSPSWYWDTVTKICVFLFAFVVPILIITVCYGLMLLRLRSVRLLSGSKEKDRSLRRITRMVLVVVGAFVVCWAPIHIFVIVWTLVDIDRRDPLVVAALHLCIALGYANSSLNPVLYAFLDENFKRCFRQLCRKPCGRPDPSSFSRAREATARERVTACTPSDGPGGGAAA

| Compound | IC50 (Mu-type opioid receptor) [nM] | IC50 [1] [nM] | IC50 [2] [nM] | logD [4] | other results |
| --- | --- | --- | --- | --- | --- |
| COc1cccc([C@@H](c2ccc3c(c2)CN(CCC(=O)O)C3)N2C[C@@H](C)N(Cc3ccccc3)C[C@@H]2C)c1 | > 10000 | > 10000 | 631 |  |  |
| C=CCN1C[C@H](C)N([C@H](c2ccc(C(=O)N(CC)CC)cc2)c2cccc(O)c2)C[C@H]1C |  |  | 0.631 |  |  |
| C=CCN1C[C@H](C)N([C@H](c2ccc(C(=O)N(CC)CC)cc2)c2cccc(OC)c2)C[C@H]1C [SNC-80] | > 10000 | 1260 |  |  | Activity (Mus musculus [3]): Active |
| C[C@@H]1CN([C@@H](c2cccc(F)c2)c2ccc3c(c2)CN(CCC(=O)O)C3)[C@@H](C)CN1Cc1ccccc1 |  |  | 25.1 |  |  |
| C[C@@H]1CN([C@@H](c2cccc(F)c2)c2ccc3c(c2)CN(CCC(=O)O)CC3)[C@@H](C)CN1Cc1ccccc1 |  |  | 100 |  |  |
| C[C@@H]1CN([C@@H](c2cccc(O)c2)c2ccc3c(c2)CN(C(=O)CC(=O)O)CC3)[C@@H](C)CN1Cc1ccccc1 | 200 | 398 | 0.001 | 0.4 |  |
| COc1cccc([C@@H](c2ccc3c(c2)CN(CCC(=O)O)CC3)N2C[C@@H](C)N(Cc3ccccc3)C[C@@H]2C)c1 | > 10000 | 1000 | 12.6 | 2.3 |  |
| C[C@@H]1CN([C@@H](c2cccc(O)c2)c2ccc3c(c2)CN(Cc2ccccc2C(=O)O)C3)[C@@H](C)CN1Cc1ccccc1 |  |  | 3.16 |  |  |
| C[C@@H]1CN([C@H](c2ccc(-c3ccccc3C(=O)O)cc2)c2cccc(O)c2)[C@@H](C)CN1Cc1ccccc1 |  |  | 0.02 | 2.3 |  |
| C[C@@H]1CN([C@@H](c2cccc(O)c2)c2ccc3c(c2)CN(C(=O)c2cccc(C(=O)O)c2)C3)[C@@H](C)CN1Cc1ccccc1 | 100 | 1260 | 1.58 |  |  |
| COc1cccc([C@@H](c2ccc3c(c2)CN(C(=O)CC(=O)O)CC3)N2C[C@@H](C)N(Cc3ccccc3)C[C@@H]2C)c1 |  |  | 15.8 | 1.3 |  |
| C[C@@H]1CN([C@@H](c2ccccc2)c2ccc3c(c2)CN(CCC(=O)O)C3)[C@@H](C)CN1Cc1ccccc1 |  |  | 63.1 |  |  |
| C[C@@H]1CN([C@@H](c2cccc(O)c2)c2ccc3c(c2)CN(C(=O)c2ccccc2C(=O)O)C3)[C@@H](C)CN1Cc1ccccc1 | 50.1 | 3980 | 0.316 |  |  |
| COc1cccc([C@@H](c2ccc3c(c2)CN(CC(=O)O)C3)N2C[C@@H](C)N(Cc3ccccc3)C[C@@H]2C)c1 |  |  | 25.1 |  |  |
| C[C@@H]1CN([C@H](c2ccc(CC(=O)O)cc2)c2cccc(O)c2)[C@@H](C)CN1Cc1ccccc1 |  |  | 0.158 | 1.1 | Activity (Mus musculus [5]): Active |
| C[C@@H]1CN([C@@H](c2cccc(O)c2)c2ccc3c(c2)CN(CCC(=O)O)C3)[C@@H](C)CN1Cc1ccccc1 | 631 | 7940 | 1 |  |  |
| C[C@@H]1CN([C@@H](c2cccc(O)c2)c2ccc3c(c2)CN(CC(=O)O)CC3)[C@@H](C)CN1Cc1ccccc1 | 316 | 1000 | 0.0398 | 2.1 |  |
| C[C@@H]1CN([C@@H](c2cccc(O)c2)c2ccc3c(c2)CN(CCC(=O)O)CC3)[C@@H](C)CN1Cc1ccccc1 | 1000 | 5010 | 0.00501 | 2.1 |  |
| C[C@@H]1CN([C@@H](c2cccc(O)c2)c2ccc3c(c2)CN(CC(=O)O)C3)[C@@H](C)CN1Cc1ccccc1 | 126 | 1260 | 0.501 |  |  |
| C[C@@H]1CN([C@@H](c2cccc(O)c2)c2ccc3c(c2)CN(C(=O)C(=O)O)CC3)[C@@H](C)CN1Cc1ccccc1 | 200 | 398 | 0.00158 | 1.6 |  |
| COc1cccc([C@@H](c2ccc3c(c2)CN(CC(=O)O)CC3)N2C[C@@H](C)N(Cc3ccccc3)C[C@@H]2C)c1 | 5010 | 1260 | 2 | 2.5 | IC50 [6]: 5.01 nM; clearance [7]: 17 mL/min/kg; Vd [8]: 5.4 L/kg; bioavailability [9]: 20% |
| C[C@@H]1CN([C@H](c2ccc(CCC(=O)O)cc2)c2cccc(O)c2)[C@@H](C)CN1Cc1ccccc1 |  |  | 0.126 | 2.1 | Activity (Mus musculus [10]): Active |
| C[C@@H]1CN([C@@H](c2cccc(F)c2)c2ccc3c(c2)CN(C(=O)CC(=O)O)CC3)[C@@H](C)CN1Cc1ccccc1 |  |  | 20 |  |  |

Source: ChEMBL document CHEMBL1138105, “Highly potent and selective zwitterionic agonists of the delta-opioid receptor. Part 1” (Bioorg Med Chem Lett, 2006)
